Measured values published in patent publication US7550469B2, “Heterocyclic amide derivatives and their use as dopamine D3 receptor ligands” (Aventis Pharmaceuticals Inc., priority 2001, dated 2009).
Read-outs that look alike come from different tables or passages of the source.

Molecular target: T1, cloned human dopamine D3 receptors (Homo sapiens, UniProt P35462)
T1 construct: expressed in transfected cells; membrane homogenate
Assay: [N-Methyl-3H]Spiroperidol binding to cloned human dopamine D3 receptors (Protocol 1)
Method in brief: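 Membranes from CHO cells stably expressing cloned human D3 receptor were used for [N-methyl-3H]spiroperidol (60-90 Ci/mmol) binding. Assay buffer was 0.05 M Tris HCl pH 7.7 with 120 mM NaCl, 5 mM KCl, 2 mM CaCl2 and 1 mM MgCl2, optionally 0.1% ascorbic acid; total ligand concentration calculated from added CPM.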

[1] = the 18th table, read-out: D3 Ki
[2] = the 14th table, read-out: D3 Ki

T1 sequence (P35462 whole entry): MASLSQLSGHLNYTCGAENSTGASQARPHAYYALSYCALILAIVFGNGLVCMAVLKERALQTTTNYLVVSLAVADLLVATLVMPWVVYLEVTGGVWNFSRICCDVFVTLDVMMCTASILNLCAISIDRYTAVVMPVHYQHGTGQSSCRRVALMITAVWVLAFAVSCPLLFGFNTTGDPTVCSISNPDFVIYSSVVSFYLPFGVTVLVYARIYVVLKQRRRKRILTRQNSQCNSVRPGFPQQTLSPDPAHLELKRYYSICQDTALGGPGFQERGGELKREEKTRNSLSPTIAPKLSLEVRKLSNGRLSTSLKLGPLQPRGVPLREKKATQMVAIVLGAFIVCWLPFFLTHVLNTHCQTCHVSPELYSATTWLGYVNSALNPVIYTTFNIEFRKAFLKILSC

Row | Compound | Ki (read-out: D3K1) [nM] | Ki [1] [nM] | other results
1 | CC1(C)C(CNC(=O)c2ccccc2)C1CN1CCN(c2csc3cc(C(F)(F)F)ccc23)CC1 (stereo not drawn) [compound 826275] | 92 |  | 
2 | CC1(C)C(CNC(=O)c2cccs2)C1CN1CCN(c2csc3cc(C(F)(F)F)ccc23)CC1 (stereo not drawn) [compound 826276] | 58 |  | 
3 | CC1(C)C(CNC(=O)c2ccc3ccccc3c2)C1CN1CCN(c2csc3cc(C(F)(F)F)ccc23)CC1 (stereo not drawn) [compound 826277] | 20.3 |  | 
4 | CC1(C)C(CNC(=O)c2cccc(C(F)(F)F)c2)C1CN1CCN(c2csc3cc(C(F)(F)F)ccc23)CC1 (stereo not drawn) [compound 826278] | 87 |  | 
5 | CC1(C)C(CNC(=O)c2cccc(C#N)c2)C1CN1CCN(c2csc3cc(C(F)(F)F)ccc23)CC1 (stereo not drawn) [compound 826280] | 116 |  | 
6 | CC1(C)C(CNC(=O)Cc2ccccc2)C1CN1CCN(c2csc3cc(C(F)(F)F)ccc23)CC1 (stereo not drawn) [compound 826281] | 73.2 |  | 
7 | COc1ccc2[nH]c(C(=O)NC[C@@H]3CCCC[C@H]3CN3CCN(c4csc5cc(C(F)(F)F)ccc45)CC3)cc2c1 [compound 826284] | 77 |  | 
8 | O=C(NC[C@@H]1CCCC[C@H]1CN1CCN(c2csc3cc(C(F)(F)F)ccc23)CC1)c1cc2ccccc2[nH]1 [compound 826285] | 170 |  | 
9 | O=C(NCC1CCC1CN1CCN(c2csc3cc(C(F)(F)F)ccc23)CC1)c1cc2ccccc2[nH]1 (stereo not drawn) [compound 826290] | 72 |  | 
10 | COc1ccc2[nH]c(C(=O)NCC3CCC3CN3CCN(c4csc5cc(C(F)(F)F)ccc45)CC3)cc2c1 (stereo not drawn) [compound 826291] | 37 |  | 
11 | O=C(NCC1CCC1CN1CCN(c2csc3cc(C(F)(F)F)ccc23)CC1)c1cc2ccccc2s1 (stereo not drawn) [compound 826292] | 200 |  | 
12 | O=C(Cc1ccccc1)NCC1CCC1CN1CCN(c2csc3cc(C(F)(F)F)ccc23)CC1 (stereo not drawn) [compound 826293] | 240 |  | 
13 | O=C(NCc1sccc1CN1CCN(c2csc3cc(F)ccc23)CC1)c1cccs1 [compound 826295] |  | 46 | 
14 | O=C(NCc1sccc1CN1CCN(c2csc3cc(F)ccc23)CC1)c1cccc(Cl)c1 [compound 826296] |  | 106 | 
15 | COc1cc(OC)cc(C(=O)NCc2sccc2CN2CCN(c3csc4cc(F)ccc34)CC2)c1 [compound 826297] |  | 31 | 
16 | O=C(NCc1sccc1CN1CCN(c2csc3cc(F)ccc23)CC1)c1ccc(OC(F)(F)F)cc1 [compound 826298] |  | 59 | 
17 | O=C(NCc1sccc1CN1CCN(c2csc3cc(F)ccc23)CC1)c1cccc2ccccc12 [compound 826299] |  | 95 | 
18 | O=C(NCc1sccc1CN1CCN(c2csc3cc(F)ccc23)CC1)c1ccc2ccccc2c1 [compound 826300] |  | 36 | 
19 | O=C(NCc1sccc1CN1CCN(c2csc3cc(F)ccc23)CC1)c1cccc(C(F)(F)F)c1 [compound 826301] |  | 94 | 
20 | COc1ccccc1C(=O)NCc1sccc1CN1CCN(c2csc3cc(F)ccc23)CC1 [compound 826302] |  | 16 | 
21 | O=C(NCc1sccc1CN1CCN(c2csc3cc(F)ccc23)CC1)c1cccc(F)c1 [compound 826303] |  | 64 | 
22 | O=C(NCc1sccc1CN1CCN(c2csc3cc(F)ccc23)CC1)c1ccc(F)cc1 [compound 826304] |  | 84 | 
23 | COc1ccc(C(=O)NCc2sccc2CN2CCN(c3csc4cc(F)ccc34)CC2)cc1OC [compound 826305] |  | 30 | 
24 | Cc1ccccc1C(=O)NCc1sccc1CN1CCN(c2csc3cc(F)ccc23)CC1 [compound 826306] |  | 89 | 

Row | Compound | Ki (read-out: D3K1) [nM] | Ki [1] [nM] | other results
25 | COc1cccc(C(=O)NCc2sccc2CN2CCN(c3csc4cc(F)ccc34)CC2)c1 [compound 826307] |  | 47 | 
26 | O=C(NCc1sccc1CN1CCN(c2csc3cc(F)ccc23)CC1)c1ccc(-c2ccccc2)cc1 [compound 826308] |  | 206 | 
27 | CC(C)(C)c1ccc(C(=O)NCc2sccc2CN2CCN(c3csc4cc(F)ccc34)CC2)cc1 [compound 826309] |  | 63 | 
28 | O=C(NCc1sccc1CN1CCN(c2csc3cc(F)ccc23)CC1)c1cnc2ccccc2n1 [compound 826310] |  | 203 | 
29 | O=C(NCc1sccc1CN1CCN(c2csc3cc(F)ccc23)CC1)c1ccc(C(F)(F)F)cc1 [compound 826311] |  | 74 | 
30 | O=C(NCc1sccc1CN1CCN(c2csc3cc(F)ccc23)CC1)c1ccncc1 [compound 826312] |  | 29 | 
31 | O=C(NCc1sccc1CN1CCN(c2csc3cc(F)ccc23)CC1)c1cccnc1Cl [compound 826313] |  | 134 | 
32 | O=C(NCc1sccc1CN1CCN(c2csc3cc(F)ccc23)CC1)c1cccc2cc[nH]c12 [compound 826314] |  | 46 | 
33 | CS(=O)(=O)c1sc(C(=O)NCc2sccc2CN2CCN(c3csc4cc(F)ccc34)CC2)c2c1C=CCC2 [compound 826315] |  | 31 | 
34 | O=C(NCc1sccc1CN1CCN(c2csc3cc(F)ccc23)CC1)c1csc(-c2cccnc2)n1 [compound 826316] |  | 32 | 
35 | O=C(NCc1sccc1CN1CCN(c2csc3cc(F)ccc23)CC1)c1csnn1 [compound 826317] |  | 48 | 
36 | O=C(NCc1sccc1CN1CCN(c2csc3cc(F)ccc23)CC1)c1sccc1-n1cccc1 [compound 826318] |  | 90 | 
37 | O=C(NCc1sccc1CN1CCN(c2csc3cc(F)ccc23)CC1)c1cc(-c2ccco2)nc2ccccc12 [compound 826319] |  | 273 | 
38 | O=C(NCc1sccc1CN1CCN(c2csc3cc(F)ccc23)CC1)c1cc2sccc2s1 [compound 826320] |  | 75.3 | 
39 | Cc1nn(C)c2sc(C(=O)NCc3sccc3CN3CCN(c4csc5cc(F)ccc45)CC3)cc12 [compound 826321] |  | 41.3 | 
40 | O=C(NCc1sccc1CN1CCN(c2csc3cc(F)ccc23)CC1)c1cc2ccccc2[nH]1 [compound 826322] |  | 296 | 
41 | COc1ccc2[nH]c(C(=O)NCc3sccc3CN3CCN(c4csc5cc(F)ccc45)CC3)cc2c1 [compound 826323] |  | 67 | 
42 | Cn1c(C(=O)NCc2sccc2CN2CCN(c3csc4cc(F)ccc34)CC2)cc2ccccc21 [compound 826324] |  | 120 | 
43 | O=C(NCc1sccc1CN1CCN(c2csc3cc(F)ccc23)CC1)c1c[nH]c2ccccc12 [compound 826325] |  | 54 | 
44 | O=C(NCc1sccc1CN1CCN(c2csc3cc(F)ccc23)CC1)c1cccc2[nH]ccc12 [compound 826326] |  | 71 | 
45 | O=C(NCc1sccc1CN1CCN(c2csc3cc(F)ccc23)CC1)c1ccc2[nH]ccc2c1 [compound 826327] |  | 20 | 
46 | O=C(NCc1sccc1CN1CCN(c2csc3cc(F)ccc23)CC1)c1ccc2cc[nH]c2c1 [compound 826328] |  | 28 | 
47 | O=C(NCc1sccc1CN1CCN(c2csc3cc(F)ccc23)CC1)c1n[nH]c2ccccc12 [compound 826329] |  | 14 | 
48 | CC1=C(C(=O)NCc2sccc2CN2CCN(c3csc4cc(F)ccc34)CC2)Cc2ccccc21 [compound 826330] |  | 16 | 

Row | Compound | Ki (read-out: D3K1) [nM] | Ki [1] [nM] | other results
49 | O=C(NCc1sccc1CN1CCN(c2csc3cc(F)ccc23)CC1)c1cc2ccccc2o1 [compound 826331] |  | 51 | 
50 | O=C(NC/C=C\CN1CCN(c2csc3cc(C(F)(F)F)ccc23)CC1)c1ccsc1 [compound 826332] | 20 |  | 
51 | O=C(NC/C=C\CN1CCN(c2csc3cc(C(F)(F)F)ccc23)CC1)C1CCC1 [compound 826333] | 24 |  | 
52 | O=C(NC/C=C\CN1CCN(c2csc3cc(C(F)(F)F)ccc23)CC1)C1CCCC1 [compound 826334] | 21 |  | 
53 | O=C(NC/C=C\CN1CCN(c2csc3cc(C(F)(F)F)ccc23)CC1)c1ccccn1 [compound 826335] | 42 |  | 
54 | O=C(NC/C=C\CN1CCN(c2csc3cc(C(F)(F)F)ccc23)CC1)c1cccnc1 [compound 826336] | 41 |  | 
55 | O=C(NC/C=C\CN1CCN(c2csc3cc(C(F)(F)F)ccc23)CC1)c1ccccc1 [compound 826337] | 29 |  | 
56 | O=C(NC/C=C\CN1CCN(c2csc3cc(C(F)(F)F)ccc23)CC1)c1cc(F)cc(F)c1 [compound 826338] | 93 |  | 
57 | O=C(NC/C=C\CN1CCN(c2csc3cc(C(F)(F)F)ccc23)CC1)C1CCCCC1 [compound 826339] | 24 |  | 
58 | O=C(NC/C=C\CN1CCN(c2csc3cc(C(F)(F)F)ccc23)CC1)c1cccc(Cl)c1 [compound 826340] | 73 |  | 
59 | O=C(NC/C=C\CN1CCN(c2csc3cc(C(F)(F)F)ccc23)CC1)c1ccc(F)cc1 [compound 826341] | 11 |  | 
60 | O=C(NC/C=C\CN1CCN(c2csc3cc(C(F)(F)F)ccc23)CC1)c1cccc(F)c1 [compound 826342] | 47 |  | 
61 | N#Cc1cccc(C(=O)NC/C=C\CN2CCN(c3csc4cc(C(F)(F)F)ccc34)CC2)c1 [compound 826343] | 53 |  | 
62 | COc1cccc(C(=O)NC/C=C\CN2CCN(c3csc4cc(C(F)(F)F)ccc34)CC2)c1 [compound 826344] | 29 |  | 
63 | O=C(CCC1CCCC1)NC/C=C\CN1CCN(c2csc3cc(C(F)(F)F)ccc23)CC1 [compound 826345] | 77 |  | 
64 | O=C(NC/C=C\CN1CCN(c2csc3cc(C(F)(F)F)ccc23)CC1)c1cccc(C(F)(F)F)c1 [compound 826346] | 170 |  | 
65 | O=C(COc1ccccc1)NC/C=C\CN1CCN(c2csc3cc(C(F)(F)F)ccc23)CC1 [compound 826347] | 67 |  | 
66 | O=C(NC/C=C\CN1CCN(c2csc3cc(C(F)(F)F)ccc23)CC1)c1ccc(OC(F)(F)F)cc1 [compound 826348] | 61 |  | 
67 | O=C(COCc1ccccc1)NC/C=C\CN1CCN(c2csc3cc(C(F)(F)F)ccc23)CC1 [compound 826349] | 180 |  | 
68 | O=C(NCCCCN1CCCN(c2csc3cc(F)ccc23)CC1)c1ccc2nonc2c1 [compound 826699] |  |  | Ki (Table 2, read-out: D3K1): 6.73 nM; Ki (the 16th table, read-out: D3 Ki): 6.73 nM
69 | COc1ccc2[nH]c(C(=O)NCCCCCCN3CCN(c4csc5cc(C(F)(F)F)ccc45)CC3)cc2c1 [compound 826738] | 6.1 |  | Ki [2]: 6.1 nM
70 | Cn1c(C(=O)NCCCCCCN2CCN(c3csc4cc(C(F)(F)F)ccc34)CC2)cc2ccccc21 [compound 826739] | 2.1 |  | Ki [2]: 2.1 nM
71 | O=C(NCCCCCCN1CCN(c2csc3cc(C(F)(F)F)ccc23)CC1)c1c[nH]c2ccccc12 [compound 826740] | 44 |  | Ki [2]: 44 nM
